Results as given in PMC11881554 (Antimicrobial Agents and Chemotherapy, 2025).
Where two headings read alike, the source gives them in different places.

How the values were obtained:
[1] = system: K. pneumoniae isolate KPC-Kpn-1; assay: Neutropenic mouse lung infection model (intranasal challenge); format: in vivo; conditions: 24 h post treatment; treatment from 2 h post infection; cefepime 127.5 mg/kg/day SC, MB076 100 mg/kg/day IV (25 mg/kg every 6 h); neutropenic mice, n = 5
Experimental: (§1) A 0.2 mL aliquot of a single-use glycerol stock of the KPC-Kpn isolate (at −80°C) was used to seed 20 mL brain heart infusion (BHI) and then incubated at 35–37°C with shaking (120 rpm) for 8 h. Bacterial cells in the 20 mL aliquot were pelleted by centrifugation (3,500 × g) for 15 min and then resuspended in 10 mL cold phosphate buffer saline (PBS). The optical density, OD620 nm, was measured and used to guide dilution. The PBS suspensions were stored on ice for no more than 2 h prior to infecting the animals. The bacterial count in the challenge organism suspension was enumerated by dilution plating to CAMH agar plates followed by 20–24 h incubation.
Eleven- to 12-week-old BALB/c mice obtained from Charles River Laboratories (Raleigh, NC) were allowed to acclimatize for at least 1 week prior to initiating the studies. All animal procedures were approved by the Institutional Animal Care and Use Committee at the University of North Carolina at Chapel Hill (IACUC ID: 21-125.0), and all experiments were performed in accordance with institutional guidelines for animal experiments. […]
Five mice/group were sacrificed by overdose of inhaled 5% isoflurane at 26 h post inoculation. […] Lung bacterial counts were analyzed using a one-way ANOVA followed by post-hoc Tukey multiple comparison test (GraphPad Prism 10.1, GraphPad Software Inc., San Diego, USA). […]

[2] = system: K. pneumoniae Kpn original KPC-2; assay: MIC by agar dilution, Kpn original KPC-2; format: cell-based; conditions: Klebsiella pneumoniae, MB076 fixed at 4 µg/mL in the combination
Experimental: (§2) Cation adjusted (25.0 mg/L Ca^2+ and 12.5 mg/L Mg^2+) Mueller-Hinton broth (CAMHB; BBL Microbiology Systems, Cockeysville, MD) and agar (CAMHA; Becton, Dickinson and Company, Sparks, MD) were used for susceptibility testing and for all in vitro experiments. […] All antibiotic solutions were filter sterilized using a 0.22-μm-pore-size filter (Fisher Scientific, Pittsburgh, PA).

[3] = system: K. pneumoniae Kpn ST258 C3 (KPC-3); assay: MIC by agar dilution, Kpn ST258 C3; format: cell-based; conditions: Klebsiella pneumoniae, MB076 fixed at 4 µg/mL in the combination
Experimental: as §2

[4] = system: K. pneumoniae KPC-Kpn-1; assay: Survival of mice infected intravenously via the tail vein; format: in vivo; conditions: male C57BL/6, 7 per group, 2.1 × 10^8 CFU/mouse IV; 100 mg/kg/dose at infection, 18 and 24 h; combination at 1:4 molar ratio
Experimental: as §1
Seven male C57BL/6 mice per treatment group were infected intravenously via the tail-vein by injecting a prepared inoculum of KPC-Kpn-1, input CFU = 2.1 × 10^8 CFU/mouse, contained in a volume of 0.25 mL per animal. […] Doses were repeated the following morning and afternoon (18 and 24 h after infection). Survival was evaluated 24 h post-treatment. Kaplan-Meier survival curves were generated using log-rank test (GraphPad Prism 10.1, GraphPad Software Inc., San Diego, USA). A P value of <0.05 was considered statistically significant.

[5] = system: K. pneumoniae KPC-Kpn-1 (KPC-3, SHV-12, TEM-1); assay: MIC by agar dilution, KPC-Kpn-1; format: cell-based; conditions: Klebsiella pneumoniae, inhibitor (MB076 or S02030) fixed at 4 µg/mL in the combination
Experimental: as §2

[6] = healthy adults, multidose cefepime and zidebactam; cited from earlier work
[7] = system: K. pneumoniae Kpn ST258 B5 (KPC-2); assay: MIC by agar dilution, Kpn ST258 B5; format: cell-based; conditions: Klebsiella pneumoniae, MB076 fixed at 4 µg/mL in the combination
Experimental: as §2

[8] = system: E. coli ATCC BAA202 (SHV-1); assay: MIC by agar dilution, E. coli ATCC BAA202; format: cell-based; conditions: Escherichia coli, ATCCBAA202, MB076 fixed at 4 µg/mL in the combination
Experimental: as §2

[9] = system: K. pneumoniae Kpn266 (SHV-5); assay: MIC by agar dilution, Kpn266; format: cell-based; conditions: Klebsiella pneumoniae, MB076 fixed at 4 µg/mL in the combination
Experimental: as §2

[10] = system: K. pneumoniae Kpn 255 (TEM-1, SHV-2); assay: MIC by agar dilution, Kpn 255; format: cell-based; conditions: Klebsiella pneumoniae, MB076 fixed at 4 µg/mL in the combination
Experimental: as §2

[11] = system: K. pneumoniae Kpn ST17 (KPC-2, TEM, SHV, CTX-M group 1); assay: MIC by agar dilution, Kpn ST17; format: cell-based; conditions: Klebsiella pneumoniae, MB076 fixed at 4 µg/mL in the combination
Experimental: as §2

[12] = system: K. pneumoniae Kpn 34700 (CTX-M-15, SHV, TEM); assay: MIC by agar dilution, Kpn 34700; format: cell-based; conditions: Klebsiella pneumoniae, MB076 fixed at 4 µg/mL in the combination
Experimental: as §2

[13] = Plasma pharmacokinetics of MB076 after single IV dose in thigh-infected mice; format: in vivo, mouse; conditions: for half-life / AUC(0-t) / AUC(0-inf) / C0 / clearance / Vd: plasma; for half-life: iv; for Vd: read-out: Vss
Experimental: A single dose PK study was conducted in mice infected with K. pneumoniae AR-BANK#0098 (producing KPC-2, OXA-9, and TEM-1) employing a thigh infection model. Escalating doses of MB076 (12.5, 25, 50, and 100 mg/kg) were intravenously administered via the tail vein. Following this terminal blood sampling via cardiac puncture was performed at eight different time points 5, 15, 30, 60, 90, 120, 180, and 240 min for each dose level. Plasma was separated by centrifugation at 4,000g for 10 min at 4°C and stored at −80°C until MB076 quantification was performed by LC/MS-MS bioanalysis.
WinNonlin software (Phoenix Build 8.3.1.5014) was employed to perform noncompartmental analysis (NCA) to calculate the PK parameters like elimination half-life (t1/2), area under the concentration–time curve over the duration of study (AUC0–last), and infinity (AUC0–inf), and the peak drug concentration (C0), volume of distribution (V) and clearance (CL). The AUCs for the different MB076 dose levels were calculated and compared to assess for any dose related non-linearity with increasing dose.
Terminal blood collection from cardiac puncture was conducted under CO2 euthanasia. Blood, 0.3–0.4 mL, was drawn into tubes coated with K2EDTA, mixed gently and kept on ice, and centrifuged at 12,000 × g for 5 min at 4°C within 1 h of collection. The plasma was harvested and stored at −80°C until further processing.
A 20 µL aliquot of each plasma sample was transferred to a 96 well plate. A 500 µL aliquot of 0.01 ng/µL internal standard (IS), Oxybutynin, in ACN/FA = 95/5, was added to each tube except for the double blank and carryover controls. A 500 µL aliquot of ACN/FA = 95/5, without oxybutynin, was added to the double blank and carryover assay wells. The equilibrated mixture was vortexed for 1 min and then centrifuged at 4,000 rpm for 10 min at 20°C to precipitate protein. After centrifugation, 500 µL of the supernatant was transferred to a new well of the 96 well plate for LC-MS/MS analysis. Plasma samples from treatment groups and the calibration curve samples were processed on the same test occasion using the same procedure. The calibration curve samples were generated by spiking aliquots of drug-free plasma with an MB076 dilution. The quality control (QC) samples, QH (high), QM (medium), and QL (low) were each assayed in duplicate.
LC-MS/MS was conducted with a SCIEX Triple Quad 5500 + mass spectrometer. Method development was conducted to determine appropriate conditions for LC-MS/MS analysis of MB076. A titration of a stock solution was performed to correlate peak areas and the corresponding concentration. The reportable linear range of the assay was determined along with the lower and upper limits of quantitation (LLOQ and […]).
To develop the bioanalytical method, MB076 was prepared in ACN/H2O = 50/50 at 1 ng/µL. Full scan MS analyses were conducted, and total ion current chromatograms and corresponding mass spectra were reviewed for MB076 in both positive and negative ionization modes. The precursor ions for MS/MS were selected from either the positive or the negative mass spectrum, as a function of the respective ion abundance. In addition, product ion MS/MS analysis was performed to determine the appropriately selected fragmentation reaction for use in quantitative analysis. The final reaction monitoring parameters were chosen to maximize the ability to quantify the test compound when present within a complex mixture of components. Following the identification of the specific multiple reaction monitoring (MRM) transition to be used for each test compound, the detection parameters were optimized. MB076 was observed as one charged ion [M + H]+ and the MRM chosen was m/z = 374.0 to m/z = 243.2 for MB076 in electrospray positive ion mode.
The chromatographic conditions used for LC-MS analysis were identified by injection and separation of the analyte on a suitable LC column followed by adjustment of the gradient conditions as necessary. […]

[14] = system: K. pneumoniae KPC-Kpn-1; assay: Static time-kill assay in CAMHB; format: cell-based; conditions: in combination with cefepime
Experimental: as §2

[15] = set-up: method as in PMID 37358467; conditions: cited from earlier work
[16] = mouse, 12.5 mg/kg single IV, thigh-infected mice
[17] = mouse, 25 mg/kg single IV, thigh-infected mice
[18] = mouse, 50 mg/kg single IV, thigh-infected mice
[19] = mouse, 100 mg/kg single IV, thigh-infected mice

SMILES: CO/N=C(\C(=O)N[C@@H]1C(=O)N2C(C(=O)[O-])=C(C[N+]3(C)CCCC3)CS[C@H]12)c1csc(N)n1 [FEP, cefepime]
- log10 CFU reduction in lung compared to the no treatment control group [1]: 1.07 log10 CFU
- MIC [2]: 64 µg/mL
- MIC [3]: 32 µg/mL
- survival outcome of all mice in the group [4]: died
- MIC [5]: 32 µg/mL
- median AUCELF/AUCplasma [6]: 38%
- MIC [7]: 32 µg/mL
- MIC [8]: 1 µg/mL
- MIC [9]: 2 µg/mL
- MIC [10]: 4 µg/mL
- MIC [11]: 8 µg/mL
- MIC [12]: 32 µg/mL

SMILES: Nc1nnc(SCC(=O)N[C@@H](Cn2cc(C(=O)O)nn2)B(O)O)s1 [MB076]
- reduction in clearance ([13]; 100 mg/kg compared to 12.5 mg/kg): 1.7 fold
- increase of dose-normalized AUC ([13]; from 12.5 to 100 mg/kg dose): twofold
- extraction ratio ([13]; hepatic blood flow in mouse 5.4 L/h/kg): 0.33
- clearance classification ([13]; mouse, IV): low clearance compound
- half-life ([13]; mouse, 25 mg/kg, 25 mg/kg single IV, thigh-infected mice): 36.6 min
- half-life ([13]; mouse, 50 mg/kg, 50 mg/kg single IV, thigh-infected mice): 25.8 min
- half-life ([13]; mouse, 100 mg/kg, 100 mg/kg single IV, thigh-infected mice): 25.8 min
- AUC(0-t) ([13]; mouse, single IV 12.5 to 100 mg/kg, infected mice, read-out: AUClast, range over the dose levels): 7100 to 103000 ng·h/mL
- dose linearity of plasma PK ([13]; mouse, single IV): linear PK in plasma up to 50 mg/kg dose
- AUC(0-inf) [13, 16]: 7200 ng·h/mL
- C0 [13, 16]: 35.6 µg/mL
- clearance [13, 16]: 29.1 mL/min/kg
- AUC(0-t) ([13]; mouse, 12.5 mg/kg single IV, thigh-infected mice, read-out: AUClast): 7100 ng·h/mL
- Vd [13, 16]: 0.65 L/kg
- AUC(0-inf) [13, 17]: 17800 ng·h/mL
- C0 [13, 17]: 84 µg/mL
- clearance [13, 17]: 23.4 mL/min/kg
- AUC(0-t) ([13]; mouse, 25 mg/kg single IV, thigh-infected mice, read-out: AUClast): 17600 ng·h/mL
- Vd [13, 17]: 0.8 L/kg
- AUC(0-inf) [13, 18]: 31900 ng·h/mL
- C0 [13, 18]: 207 µg/mL
- clearance [13, 18]: 21.3 mL/min/kg
- AUC(0-t) ([13]; mouse, 50 mg/kg single IV, thigh-infected mice, read-out: AUClast): 39000 ng·h/mL
- Vd [13, 18]: 0.35 L/kg
- AUC(0-inf) [13, 19]: 104000 ng·h/mL
- C0 [13, 19]: 638 µg/mL
- clearance [13, 19]: 16.1 mL/min/kg
- AUC(0-t) ([13]; mouse, 100 mg/kg single IV, thigh-infected mice, read-out: AUClast): 103000 ng·h/mL
- Vd [13, 19]: 0.21 L/kg
- inhibitor concentration achieving sustained bacterial killing [14]: 4 µg/mL
- t1/2 (plasma stability) [15]: 1740 min

SMILES: O=C(Cc1cccs1)N[C@@H](Cn1cc(C(=O)O)nn1)B(O)O [S02030]
- inhibitor concentration achieving sustained bacterial killing [14]: 8 µg/mL
- t1/2 (plasma stability) [15]: 540 min
